Measured values published in ChEMBL document CHEMBL1138646, “Carbonic anhydrase inhibitors: inhibition of the membrane-bound human isozyme IV with anions” (Bioorg Med Chem Lett, 2004).
“And” between values parts separate entries of the source, which are not always exact repeats. Equal entries are not always repeated.

Tests used:
Carbonic anhydrase V [1] = molecular target: T1, Carbonic anhydrase V (Homo sapiens, UniProt Q9Y2D0+P35218); format: protein assay
Description: Inhibition constant of anion against human carbonic anhydrase isozyme hCA V

Carbonic anhydrase 9 = Carbonic anhydrase 9 (Homo sapiens, UniProt Q16790)
Description: Inhibition constant of anion against human carbonic anhydrase isozyme hCA IX

Carbonic anhydrase 4 [2] = molecular target: T2, Carbonic anhydrase 4 (Homo sapiens, UniProt P22748)
T2 sequence (P22748 whole entry): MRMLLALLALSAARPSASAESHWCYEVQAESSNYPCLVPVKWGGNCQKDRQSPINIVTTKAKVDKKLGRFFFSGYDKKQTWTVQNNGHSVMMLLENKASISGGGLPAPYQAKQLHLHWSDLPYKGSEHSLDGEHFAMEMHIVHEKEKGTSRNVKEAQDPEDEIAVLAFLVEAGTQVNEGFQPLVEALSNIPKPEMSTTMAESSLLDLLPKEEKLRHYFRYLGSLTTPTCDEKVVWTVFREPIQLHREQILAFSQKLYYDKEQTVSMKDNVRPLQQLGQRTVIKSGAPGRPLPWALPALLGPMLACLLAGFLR
Description: Inhibition constant of anion against human carbonic anhydrase isozyme hCA IV

Carbonic anhydrase V [3] = molecular target: T1, Carbonic anhydrase V; experiment: Inhibition constant against human carbonic anhydrase isozyme hCA V; format: protein assay
Carbonic anhydrase 4 [4] = molecular target: T2, Carbonic anhydrase 4; experiment: Inhibition constant against human carbonic anhydrase isozyme hCA IV

Compound | Ki (Carbonic anhydrase V [1]; read-out: Ki) | Ki (Carbonic anhydrase 9) [mM] | Ki (Carbonic anhydrase 4 [2]) | Ki (Carbonic anhydrase V [1]) [mM] | Ki (Carbonic anhydrase V [3]) [mM] | Ki (Carbonic anhydrase 4 [4]) [nM]
O=C(O)O [BICARBONATE] | 82 mM and 95 mM | 13 | 6.6 mM and 5.7 mM |  |  | 
Br [BROMIDE] | 50 mM | 16 | 0.09 mM |  |  | 
N#CO [CYANATE] | 0.02 mM | 0.04 | 0.61 mM |  |  | 
F [FLUORIDE ION] | 241 mM | 48 | 0.07 mM |  |  | 
Cl [HYDROCHLORIC ACID] |  | 33 | 0.09 mM | 156 |  | 
S [HYDROGEN SULFIDE] |  | 0.007 | 3.9 mM | 0.02 |  | 
I [IODIDE] |  | 7 | 0.08 mM | 25 |  | 
O=[N+]([O-])O [NITRIC ACID] |  | 46 | 58.7 mM | 16 |  | 
O=NO [NITROUS ACID] | 16 mM |  | 30.8 mM |  |  | 
OB(O)c1ccccc1 [PHENYLBORONIC ACID] |  |  |  |  | 4.5 | 880
NS(=O)(=O)O [SULFAMATE] |  |  |  |  | 0.12 | 930
O=S(=O)(O)O [SULFURIC ACID] |  |  | 9 mM | 680 |  | 
O=S(O)O [SULFUROUS ACID] | 65 mM |  | 13.2 mM |  |  | 
N#CS [THIOCYANIC ACID] | 0.74 mM | 0.13 | 39 mM |  |  | 
